Legend:
PC-3 cells [1] = test: Apoptosis assay by ELISA plus; format: cell-based, human; conditions: 22.5 μM to 90 μM, 72 hours
Procedure: The three polypeptides (SEQ ID NO: 4, SEQ ID NO: 5 and SEQ ID NO 6) and native PSP94 used here as a positive control were tested in ELISA plus assay to measure cell death through apoptosis. Briefly, the ELISA plus assay is a sandwich enzyme immunoassay able to measure mono- and oligonucleosomes present in the cytoplasmic fraction of cell lysate using two antibodies, one directed against DNA and the other directed against histones. The apoptotic cell death is characterized by activation of endogenous endonucleases (e.g., calcium- and magnesium-dependant), which cleave double-stranded DNA at the most accessible internucleosomal linker region, generating mono- and oligonucleosomes. The enrichment of mono- and oligonucleosomes in the cytoplasm of the apoptotic cells is due to the fact that DNA degradation occurs several hours before plasma membrane breakdown.
Four thousand cells were seeded in Costar 96 well cell culture flat bottom plates in RPMI supplemented media containing 50 μg/ml of bovine serum albumin (BSA) and 0.1 μM FeSO4. The PC-3 cells were treated with various concentrations (22.5 μM to 90 μM) of polypeptides for 72 hours. Apoptosis assay was done as per manufacturer's instructions using the ApopTag kit (Boeringher Mannheim).

PC-3 cells [2] = test: DNA fragmentation assay (DNA ladder, apoptosis); format: cell-based, human; conditions: various concentrations, 72 hours
Procedure: Cell apoptosis result in DNA fragmentation can be evaluated by the presence of a DNA ladder visualized when DNA is run on a 1.2% agarose gel. DNA ladder assay (apoptosis assay) was performed following exposure of PC-3 to various concentrations of the polypeptides for 72 hours. The polypeptides that were used in this particular experiment are polypeptide 7-21 (SEQ ID NO: 4), polypeptide PCK3145 (SEQ ID NO: 5) and polypeptide 76-94 (SEQ ID NO: 6). […] This effect was especially evident following treatment with PCK3145 (SEQ ID NO: 5), which is illustrated by FIG. 7. Lane 1 of the gel illustrated in FIG. 7 represents a lambda HindIII digest standard.
Apoptosis of PC-3 cells, following a 72 hours exposure to PCK3145 at 500 μg/ml concentration, was evaluated in supplemented media by DNA fragmentation assay. Doxorubicin was used as a reference positive control. Untreated cells and PCK3145-treated cells were harvested and the DNA was isolated. Isolated DNA was run on a 1.2% agarose gel containing Ethidium Bromide (EtBr). […] Lane 1 of the gel illustrated in FIG. 25 represents the DNA marker (100 base pair DNA ladder). Lane 2 of the gel illustrated in FIG. 25 represents a control of untreated PC-3 cells.

[3] = tested on: human prostate cancer cells PC-3; test: MTS assay, growth inhibitory effect on PC-3 cells; format: cell-based; conditions: 72 hours
Source text: Cell proliferation was monitored on PC-3 cells using the MTS/PMS (phenazine methosulfate) kit (Promega), which primarily measures mitochondrial activity of live cells. The basic principle of this method involves the fact that the mitochondrial enzymes of the live cells metabolize the MTS/PMS dyes forming a brown colored precipitate which can be measured as optical density (OD) by absorption at 490 nm in a spectrophotometer. Therefore, the OD values are proportional to the number of living cells. In addition, monitoring of cell morphology was also performed. Cell morphology would be indicative of their health status. For example, viable cells would appear adherent and spread out whereas dead cells would be in suspension in the media and would appear granular and round.
PC-3 cells (ATCC, Lot AT06) used in these experiments were at a passage number lower or equal to 70 (n≧70). Cells were seeded in Costar 96 well cell culture flat bottom plates in RPMI supplemented media containing 50 μg/ml of bovine serum albumin (BSA) and 0.1 μM FeSO4. Peptide was diluted in the same media. Cells were continuously exposed to the polypeptides of the present invention for 72 hours without changing media. Native PSP94 or rHuPSP94 concentrated two fold were directly added to wells and diluted to 1× in order to minimize cell manipulation and avoid detachment.
Native PSP94, rHuPSP94, polypeptide 22-36 and PB111 polypeptide (scrambled polypeptide) were also included in this experiment as controls. Cell proliferation assay was performed on either PC-3 cells or normal fibroblasts (used here as control) using the MTS/PMS kit (Promega). Four thousand cells (FIGS. 9 and 10) or three thousand (FIG. 11) cells were seeded in Costar 96 well cell culture flat bottom plates in RPMI supplemented media containing 50 μg/ml of bovine serum albumin (BSA) and 0.1 μM FeSO4. In addition, monitoring of cell morphology was also performed.
This assay measures the mitochondrial activity of the live cells. The basic principle of this method involves the fact that the mitochondrial enzymes of the live cells metabolize the MTS/PMS dyes forming a brown colored precipitate which can be measured as optical density (OD) by absorption at 490 nm in a spectrophotometer. Therefore, the OD values are proportional to the number of living cells.
In addition, a visual observation of the cells was also done to check the cell morphology, which could also be indicative of cell growth. The following conditions for MTS assay were used: PC-3 (ATCC, Lot AT06), passage number n≧70, cell line adapted to grow in serum-free OPTI-MEM and in RPMI supplemented with BSA (50 μg/ml) and Ferrous Sulfate (0.1 μM), continuous exposure for up to 72 hours without changing media (i.e., adding PCK3145 at 2× concentration directly to wells and diluting it 1:2 to 1× to minimize cell manipulation and avoid detachment).

PC-3 cells [4] = test: clonogenicity assay (colony formation); format: cell-based, human
Procedure: The synthetic decapeptide (SEQ ID NO: 3) has been shown herein to mimic the biological activity of native PSP94 (nPSP94) (SEQ ID NO: 1) and therefore its effect on the PC-3 cells was studied in clonogenicity assay (colony formation). Cells were seeded in Costar 96 well cell culture flat bottom plates in RPMI supplemented media containing 50 μg/ml of bovine serum albumin (BSA) and 0.1 μM FeSO4. Clonogenicity was evaluated for PC-3 cells grown in the presence of various concentration of the decapeptide after 9 days of culture (FIG. 4a). A parallel experiment was performed with various concentration of nPSP94 using the same experimental conditions (FIG. 4b). Other experiments evaluating clonogenicity was performed with the decapeptide (FIG. 5a) or nPSP94 (FIG. 5b) after 21 days of culture as well as after 10 days of culture (FIG. 6a: Decapeptide and FIG. 6b: nPSP94).

[5] = tested on: PC-3 human prostate tumor; test: PC-3 human prostate tumor in nude mice, subcutaneous treatment for 14 days (Examples 10 and 11); format: in vivo, Nude mouse; conditions: 10 μg/kg body weight per day s.c.
Procedure: PC-3 human prostate tumor was obtained from ATCC (ATCC 1435). PC-3 cells were grown in RPMI media containing 10% (v/v) of fetal calf serum and were harvested in the logarithmic phase of growth by trypsinization. Cells were centrifuged at 1200 rotation per minute (rpm) and washed three timed with Hanks balanced salt solution (HBSS). Following washing, cells were counted and adjusted to a concentration of 1×10^7 cells/ml in HBSS. A 0.1 ml volume of tumor cell inoculum containing 1×10^6 cells was administered subcutaneously into the two opposite flank region of each Nude mouse (Nu/Nu, BALE/c background). Tumor growth was monitored for approximately 18 days. Once tumor growth has been established (volume of tumor reached a volume of 50 mm^3) treatment with rHuPSP94 (SEQ ID NO: 2) was initiated and was performed once a day for 14 days by the subcutaneous route. Based on the assigned treatment groups illustrated in table 4.
PC-3 human prostate tumor (ATCC 1435) obtained from ATCC was implanted bilaterally into nude mice and tumor growth was monitored for approximately 18 days. PC-3 cells were injected once subcutaneously into each flank of the mice. Once tumor growth has been established (i.e., volume of tumor reached 0.25 to 0.50 cm^3) the treatment with decapeptide (SEQ ID NO: 3), native PSP94 (SEQ ID NO: 1) and control scrambled polypeptide PB111 was initiated and was performed once a day for 14 days by the subcutaneous route based on the treatment groups (randomly assigned) illustrated in table 5.

Substance | apoptotic cell death effect (PC-3 cells [1]) | DNA laddering effect (PC-3 cells [2]) | growth inhibition of PC-3 cells (FIG. 10) [3] | decrease in colony number (PC-3 cells [4]; 1 μg/ml) | decrease in colony number (PC-3 cells [4]; 10 μg/ml) | tumor growth (tumor volume) [5]
polypeptide 76-94: PSP94 derived synthetic polypeptide from the carboxy terminus end, SEQ ID NO: 6 (IVVEKKDPKKTCSVSEWII; Polypeptide 76-94) | dose dependent increase in the apoptotic cell death effect | induced a DNA laddering effect characteristic of apoptosis | significant growth inhibition |  |  | 
decapeptide: synthetic decapeptide as set forth in SEQ ID NO: 3, mimics the biological activity of native PSP94 (YTCSVSEPGI; decapeptide) |  |  |  | 40% | up to 60% | significant (p<0.05) tumor growth reduction

From patent publication US8551951B2, “Pharmaceutical preparations and methods for inhibiting tumors” (Aenorasis SA Pharmaceuticals and Medical Devices, priority 2000, dated 2013)
